Test [1] addresses T1, LTB4 receptor (Homo sapiens, UniProt Q15722).
T1 construct: The reaction was started by addition of a thoroughly mixed PMN cell suspension (1.6×10^6 cells); endogenous in cells; host or cells: human polymorphonuclear leukocytes (PMN), whole-cell suspension
Put plainly: Binding inhibition against 3H-LTB4 on the human polymorphonuclear leukocyte (PMN). The note with it: percentage of inhibition of specific 3H-LTB4 (4nM) binding to human PMN, 0° C. for 20 min; formula (IB) compounds, Table 18. On the procedure: Binding Inhibition Against ^3H-LTB4 on the Human Polymorphonuclear Leukocyte (PMN)
0.049 ml Hanks balanced salt solution (HBSS), 0.001 ml test compound and 0.05 ml ^3H-LTB4 (4nM) were added to polypropylene tubes and mixed. The reaction was started by addition of a thoroughly mixed PMN cell suspension (1.6×10^6 cells), followed by incubation at 0° C. for 20 min. The reaction was terminated by the addition of ice-cold HBSS (2.5 ml). PMNs were harvested by vacuum filtration through Whatman GF/C glass fiber filters on a Brandel cell harvester (BRANDEL, M-24R). The filters were then washed 2 times to remove free ^3H-LTB4 with 2.5 ml of the ice-cold PBS (−) solution. The filters were transferred to each vial, and equilibrated after adding 8 ml ACS II cocktail (Amersham). The radioactivity was measured by liquid scintillation counter (Aloka, LSC-5100).
Specific binding of ^3H-LTB4 to the LTB4 receptor was defined as total binding minus nonspecific binding. Nonspecific binding was the amount of ^3H-LTB4 binding in the presence of 1.5 μM LTB4 instead of the test compound. The inhibitory effect of test compound was calculated from the following equation.
The percentage of inhibition (%)=100−(B1/B0×100)
B1: Specific ^3H-LTB4 binding in presence of test compound
B0: Specific ^3H-LTB4 binding in absence of test compound
The compounds of the formula (IB), of the present invention have an antagonistic activity on LTB4. The results which are measured by method as hereinbefore described in Example 1(A), are shown the following Table 18.

For test [2], the target named is T2, PLA2 (derived from hog pancreas) (Sus scrofa, UniProt P00592).
T2 construct: a solution of 10 mU/ml PLA2 (derived from hog pancreas) (50 μl); from tissue; host or cells: hog pancreas
Put plainly: Inhibitory activity on PLA2. To be noted: hog pancreas PLA2, 10PY-PC substrate, fluorescence, pH7.5. It counts as biochemical. On the procedure:
(1) Inhibitory Activity on PLA2
A reaction solution including 50 mM tris-HCl buffer (pH7.5, 874 μl; containing 100 mM sodium chloride, 1 mM EDTA), 1M calciumchloride (6 μl), 1% bovine serum albumin (10 μl) and 2.5 mM 10PY-PC (10 μl), was prepared. To the solution were added a test compound in various concentration or water (50 μl), and a solution of 10 mU/ml PLA2 (derived from hog pancreas) (50 μl). The appearance of fluorescence was measured (Ex=345 nm, Em=396 nm). Percentage (%) of the strength of fluorescence in the presence of a test compound was calculated when the strength of that in the absence thereof was regarded as 100%, and therefrom IC50 value was calculated.
10PY-PC represents 3′-palmitoyl-2-(1-pyrenedecanoyl)-L-α-phosphatidylcholine, […]

In test [3] the target is T3, trypsin (derived from bovine pancreas) (Bos taurus, UniProt P00760).
T3 construct: a solution of 80 mU/ml trypsin (derived from bovine pancreas) (50 μl); from tissue; host or cells: bovine pancreas
T3 sequence (P00760 24-246): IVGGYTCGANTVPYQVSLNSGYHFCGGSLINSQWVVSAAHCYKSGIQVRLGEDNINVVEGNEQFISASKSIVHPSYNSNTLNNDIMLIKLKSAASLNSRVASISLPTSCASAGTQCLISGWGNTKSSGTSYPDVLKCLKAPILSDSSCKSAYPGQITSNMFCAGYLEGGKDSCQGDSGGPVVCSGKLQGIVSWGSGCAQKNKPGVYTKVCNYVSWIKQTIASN
Put plainly: Inhibitory activity on trypsin. It counts as biochemical. To be noted: bovine pancreas trypsin, BAPNA substrate, 30° C., pH 8.0; read-out: inhibitory activity on trypsin IC50. On the procedure: (2) Inhibitory Activity on Trypsin
To a mixture of a 0.2 M HEPES.sodium hydroxide buffer solution (pH 8.0, 100 μl) and distilled water (640 μl), were added a test compound in various concentration or water (10 μl), and a solution of 80 mU/ml trypsin (derived from bovine pancreas) (50 μl) and then the mixture was preincubated for one minute at 30° C. To the solution thus obtained was added 2.5 mM BAPNA (200 μl) and the mixture was incubated at 30° C. The absorbance at 405 nm was measured. Percentage (%) of the absorbance in the presence of a test compound was calculated when the absorbance in the absence thereof was regarded as 100%, and therefrom IC50 value was calculated.
HEPES represents 4-2-hydroxyethyl)-1-piperazineethanesulfonic acid, and
BAPNA represents α-N-benzoyl-DL-arginine-p-nitroanilide hydrochloride.

Results on nine compounds are retold here after patent US6583177B2, “Leukotriene B4 antagonist compounds and method for treatment” (Ono Pharmaceutical Co., Ltd., priority 1994, dated 2003).

T1 sequence (Q15722 whole entry): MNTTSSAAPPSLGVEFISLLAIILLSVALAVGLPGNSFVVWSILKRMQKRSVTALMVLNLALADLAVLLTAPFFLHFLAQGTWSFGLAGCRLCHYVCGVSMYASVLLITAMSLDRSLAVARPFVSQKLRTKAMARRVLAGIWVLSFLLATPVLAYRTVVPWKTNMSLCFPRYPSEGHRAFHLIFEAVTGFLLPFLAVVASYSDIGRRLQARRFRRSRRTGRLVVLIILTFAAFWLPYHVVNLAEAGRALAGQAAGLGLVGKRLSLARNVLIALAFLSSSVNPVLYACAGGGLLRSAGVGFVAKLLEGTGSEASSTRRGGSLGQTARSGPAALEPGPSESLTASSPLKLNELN
T2 sequence (P00592 23-146): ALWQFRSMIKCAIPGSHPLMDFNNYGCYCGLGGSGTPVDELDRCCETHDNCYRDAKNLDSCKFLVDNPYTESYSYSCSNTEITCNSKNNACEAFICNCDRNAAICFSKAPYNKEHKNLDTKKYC

In the case of `C=CCC(NC(=O)/C(C)=C/c1ccc(C(=O)Oc2ccc(C(=N)N)cc2)cc1)(C(=O)OCC)C(=O)OCC` [Example 2(o)], the inhibition (in general, the drop in the measured response relative to a control, in per cent) in test [1] stood at 85.8%. Further, the IC50 (in general, the concentration needed to halve the response being measured) in test [2] came to 12000 nM; in test [3], 140 nM.
For `C=CCN(CC(=O)OCC)C(=O)c1ccc(C(=O)Oc2ccc(/C=C/C(=N)N)cc2)cc1` [Example 2(i)], the inhibition in test [1] was 69.6%. Further, the IC50 in test [2] is 59000 nM; in test [3], 140 nM.
In the same order, the values of `CCOC(=O)CC[C@H](NC(=O)c1ccc(/C=C/C(=O)Oc2ccc(C(=N)N)cc2)cc1)C(=O)OCC` [Example 2(f)] are 91.8%, 70000 nM and 100 nM.
Consider `CCOC(=O)CC[C@H](NC(=O)c1ccc(/C=C(\C)C(=O)Oc2ccc(C(=N)N)cc2)cc1)C(=O)OCC` [Example 2(g)], for which the inhibition in test [1] was determined as 89.6%. The IC50 in test [2] is 53000 nM; in test [3] it was 160 nM.
`C=CCN(CC(=O)OCC)C(=O)/C=C/C=C/c1ccc(C(=O)Oc2ccc(C(=N)N)cc2)cc1` [Example 2(n)]: the inhibition in test [1] was 82.8%. The IC50 came out at 10000 nM in test [2] and 160 nM in test [3].
In the same order, the values of `N=C(N)C1=Cc2ccc(OC(=O)c3ccc(C(=O)N(Cc4ccccc4)c4ccccc4)cc3)cc2CC1` [Example 2(a)] are 92%, 2600 nM and 400 nM.
In the same order, the values of `CCOC(=O)CC(NC(=O)/C(C)=C/c1ccc(C(=O)Oc2ccc(C(=N)N)cc2)cc1)(C(=O)OCC)C(=O)OCC` [Example 2(k)] are 97.7%, 20000 nM and 100 nM.
In the same order, the values of `CCOC(=O)CC[C@H](NC(=O)C(=Cc1ccc(C(=O)Oc2ccc(C(=N)N)cc2)cc1)C(=O)OCC)C(=O)OCC` [Example 2(r)] are 80.1%, 46000 nM and 160 nM.
On to `CCOC(=O)CN(C(=O)c1ccc(C(=O)Oc2ccc3c(c2)CCC(C(=N)N)=C3)cc1)c1ccccc1` [Example 2(c)], for which the inhibition in test [1] was 103%. For the same compound, the IC50 in test [2] is 8100 nM; in test [3] it was 260 nM.
